Experimental data taken from patent publication US9175299B2, “Mutation involved in increased tolerance to imidazolinone herbicides in plants” (BASF AGROCHEMICAL PRODUCTS, B.V., priority 2004, dated 2015).

How the values were obtained:
9604 (iFEDEL) = test: Multiple field imidazolinone herbicide imazamox tolerance comparisons (Table 5), standard tolerant control; format: in vivo, Triticum aestivum; conditions: scale 1-no effect 10-dead
Description: (§1) Agronomic and comparative imidazolinone herbicide imazamox tolerance were then evaluated under field conditions. Table 4 summarizes the yield and agronomic evaluations comparing Shiloh-8 and wild type Shiloh plants. These trials were typical cereal evaluation experiments using incomplete randomized block three replication design. Plots were 1.54 m×4.62 m at harvest. Table 5 summarizes multiple field imidazolinone herbicide imazamox tolerance comparisons between Shiloh-8 and the standard tolerant control […]. These plots ranged from a single row 1 m to larger 1.54 m×4.62 m plots.

iShiloh-8/imi GDN F2's = test: Test cross EXP 2001-2 Winter, F2 screen for herbicide tolerance (Table 3); format: in vivo, Triticum aestivum
Description: (§2) Two test-cross experiments of Shiloh-8 with a known Als1 line were performed.

Shiloh-08 = test: Greenhouse screen of Shiloh-08 seedlings with imazamox at the three-leaf stage; format: in vivo, Triticum aestivum; conditions: twelve seeds, 40 g ai ha^−1 imazamox
iShiloh-8/iGDN F2's = test: Test cross with a known Als1 line, F2 screen for herbicide tolerance (Table 2); format: in vivo, Triticum aestivum; conditions: test cross of Table 2; herbicide not named at this place
Description: as §2

iSHILOH-08 = test: Multiple field imidazolinone herbicide imazamox tolerance comparisons (Table 5); format: in vivo, Triticum aestivum
Description: as §1

Shiloh = test: Test cross EXP 2001-2 Winter, wild type check (Table 3); format: in vivo, Triticum aestivum; conditions: number of plants of 7; herbicide not given
Description: as §2

imi GDN = test: Test cross EXP 2001-2 Winter, known Als1 line check (Table 3); format: in vivo; conditions: number of plants of 2; herbicide not given
Description: as §2

M3 Shiloh plants = test: Tolerance rating of M3 progeny field plots sprayed with imazamox at the three-leaf stage; format: in vivo, Triticum aestivum
Description: Samples of 1,500 Shiloh variety seeds were each placed in a 1,000 ml beaker and covered with deionized water to at least 1 inch above the seed level. The beakers were then placed in a refrigerator at 4° C. for 15-20 hours. The seed samples were removed from the refrigerator and brought up to room temperature over an approximately 3 hour period by placing the beaker at room temperature. In some cases, the warming process was accelerated by adding deionized water to the beakers.
The deionized water was drained off the seeds, and the beaker was filled with a sodium azide solution to at least 1 inch above the seed level. The sodium azide solution was prepared by adding 27.218 g KH2PO4 to 1,500 ml deionized water, bringing the solution to pH 3 with concentrated H3PO4, and bringing the final solution to 2 L volume with deionized water. Just prior to use, 0.2604 g NaN3 was added, and the solution was kept in the dark. After addition of the sodium azide solution to the seeds, the beakers were incubated in a dark area at room temperature for 2 hours, with occasional stirring.
The sodium azide treatment solution was decanted, and the seed samples were rinsed twice with deionized water. Then the seed samples were covered with deionized water to at least 1 inch above seed level and soaked at room temperature for 1 hour, with occasional stirring. The deionized water was decanted, and the seeds were spread evenly on paper towels to dry. The seeds were planted in the field near Berthoud, Colo. in six 5 feet by 40 feet plots. Approximately 15 pounds of M2 seed were harvested, and approximately 466,000 seeds were planted near Platteville, Colo. The fields were sprayed with 1× (40 g ai ha^−1 (imazamox)) or 2× (80 g ai ha^−1 (imazamox)).
Plants tolerant to the herbicide were identified and transplanted into 1 gallon pots, and put into vernalization for 4 weeks at 45° F. Fourteen single plant selections were made out of the 2× rate area. The tolerant M2 plants were taken out of vernalization, grown out in a Berthoud, Colo. greenhouse, and M3 plants were planted in approximately 4 feet by 5 feet plots near Berthoud, Colo. The plots were sprayed with 80 g ai ha^−1 (imazamox) when the plants were at the three-leaf stage, and the results of the fourteen progenies were rated as shown in Table 1.

iShiloh-8 = test: Test cross EXP 2001-2 Winter, parent check (Table 3); format: in vivo, Triticum aestivum; conditions: number of plants of 8; herbicide not given
Description: as §2

[1] = number of plants of 167 F2's, herbicide not given

COCc1cnc(C2=NC(C)(C(C)C)C(=O)N2)c(C(=O)O)c1 (stereo not drawn) [imazamox]
′99-′00 Rate D&O Plateville, CO (early) 4 oz/ac (9604 (iFEDEL); 4 oz/ac, early): 1
′99-′00 Rate D&O Quinter, KS (early) 4 oz/ac (9604 (iFEDEL); 4 oz/ac, early, spring application, temperature dropped 19° F. the night following application): 1
′99-′00 Rate D&O Quinter, KS (late) 4 oz/ac (9604 (iFEDEL); 4 oz/ac, late, spring application, temperature dropped 19° F. the night following application): 8
′99-′00 Rate D&O Plateville, CO (early) 8 oz/ac (9604 (iFEDEL); 8 oz/ac, early): 2
′99-′00 Rate D&O Quinter, KS (early) 8 oz/ac (9604 (iFEDEL); 8 oz/ac, early, spring application, temperature dropped 19° F. the night following application): 2
′99-′00 Rate D&O Quinter, KS (late) 8 oz/ac (9604 (iFEDEL); 8 oz/ac, late, spring application, temperature dropped 19° F. the night following application): 8
DGP+ Brown sheath (iShiloh-8/imi GDN F2's; [1]): 0
Dead or Dying growth point (iShiloh-8/imi GDN F2's; [1]): 0
Strong Survivors (iShiloh-8/imi GDN F2's; [1]): 140
Winkled or stunted (iShiloh-8/imi GDN F2's; [1]): 27
Genetic segregation for tolerance in the F2 population (iShiloh-8/imi GDN F2's; test cross of Table 3, herbicide not named at this place): no genetic segregation for tolerance
Reaction of Shiloh-08 plants to imazamox screen (Shiloh-08): confirmed a heritable homozygous reaction
Genetic segregation for tolerance in the F2 population (iShiloh-8/iGDN F2's): no genetic segregation for tolerance
′99-′00 Rate D&O Plateville, CO (early) 4 oz/ac (iSHILOH-08; 4 oz/ac, early, scale 1-no effect 10-dead): 2
′99-′00 Rate D&O Quinter, KS (early) 4 oz/ac (iSHILOH-08; 4 oz/ac, early, scale 1-no effect 10-dead, spring application, temperature dropped 19° F. the night following application): 2
′99-′00 Rate D&O Quinter, KS (late) 4 oz/ac (iSHILOH-08; 4 oz/ac, late, scale 1-no effect 10-dead, spring application, temperature dropped 19° F. the night following application): 5
′99-′00 Rate D&O Plateville, CO (early) 8 oz/ac (iSHILOH-08; 8 oz/ac, early, scale 1-no effect 10-dead): 3
′99-′00 Rate D&O Quinter, KS (early) 8 oz/ac (iSHILOH-08; 8 oz/ac, early, scale 1-no effect 10-dead, spring application, temperature dropped 19° F. the night following application): 3
′99-′00 Rate D&O Quinter, KS (late) 8 oz/ac (iSHILOH-08; 8 oz/ac, late, scale 1-no effect 10-dead, spring application, temperature dropped 19° F. the night following application): 6
Sum ′99 M3 Progeny Rating (8 oz/ac) Field (iSHILOH-08; 8 oz/ac, field): R-MR
DGP+ Brown sheath (Shiloh): 7
Dead or Dying growth point (Shiloh): 0
Strong Survivors (Shiloh): 0
Winkled or stunted (Shiloh): 0
DGP+ Brown sheath (imi GDN): 0
Dead or Dying growth point (imi GDN): 0
Strong Survivors (imi GDN): 1
Winkled or stunted (imi GDN): 1
Tolerance of M3 Shiloh plants to 80 g ai ha^−1 (imazamox) (M3 Shiloh plants; line Shiloh-01, 80 g ai ha^−1, three-leaf stage): Medium MR-MS
Tolerance of M3 Shiloh plants to 80 g ai ha^−1 (imazamox) (M3 Shiloh plants; line Shiloh-03, 80 g ai ha^−1, three-leaf stage): Discard-Sensitive
Tolerance of M3 Shiloh plants to 80 g ai ha^−1 (imazamox) (M3 Shiloh plants; line Shiloh-04, 80 g ai ha^−1, three-leaf stage): Discard-Sensitive
Tolerance of M3 Shiloh plants to 80 g ai ha^−1 (imazamox) (M3 Shiloh plants; line Shiloh-05, 80 g ai ha^−1, three-leaf stage): Discard-Sensitive
Tolerance of M3 Shiloh plants to 80 g ai ha^−1 (imazamox) (M3 Shiloh plants; line Shiloh-06, 80 g ai ha^−1, three-leaf stage): Discard-Sensitive
Tolerance of M3 Shiloh plants to 80 g ai ha^−1 (imazamox) (M3 Shiloh plants; line Shiloh-07, 80 g ai ha^−1, three-leaf stage): Discard-Sensitive
Tolerance of M3 Shiloh plants to 80 g ai ha^−1 (imazamox) (M3 Shiloh plants; line Shiloh-08, 80 g ai ha^−1, three-leaf stage): All Good MR-R
Tolerance of M3 Shiloh plants to 80 g ai ha^−1 (imazamox) (M3 Shiloh plants; line Shiloh-09, 80 g ai ha^−1, three-leaf stage): Discard-Sensitive
Tolerance of M3 Shiloh plants to 80 g ai ha^−1 (imazamox) (M3 Shiloh plants; line Shiloh-10, 80 g ai ha^−1, three-leaf stage): Discard-Sensitive
Tolerance of M3 Shiloh plants to 80 g ai ha^−1 (imazamox) (M3 Shiloh plants; line Shiloh-11, 80 g ai ha^−1, three-leaf stage): Discard-Sensitive
Tolerance of M3 Shiloh plants to 80 g ai ha^−1 (imazamox) (M3 Shiloh plants; line Shiloh-12, 80 g ai ha^−1, three-leaf stage): Discard-Sensitive
Tolerance of M3 Shiloh plants to 80 g ai ha^−1 (imazamox) (M3 Shiloh plants; line Shiloh-13, 80 g ai ha^−1, three-leaf stage): Discard-Sensitive
Tolerance of M3 Shiloh plants to 80 g ai ha^−1 (imazamox) (M3 Shiloh plants; line Shiloh-14, 80 g ai ha^−1, three-leaf stage): Medium MR-MS
DGP+ Brown sheath (iShiloh-8): 0
Dead or Dying growth point (iShiloh-8): 0
Strong Survivors (iShiloh-8): 7
Winkled or stunted (iShiloh-8): 1
